The structures appear in SMILES notation. Read-outs that look alike come from different tables or passages of the source. Marks after values point to notes of the source that are not given here.

Usually LogP stands for a log measure of how a compound divides between an organic and an aqueous phase. Read a low LogP as a more hydrophilic compound.

One data set concerns Sphaerotheca fuliginea. The experiment in a line: Example E: in vivo preventive test on Sphaerotheca fuliginea (powdery mildew on cucurbits). The following applies: gherkin plants, preventive spray, evaluated 15 days after inoculation. As for the experimental part:
The young plants of gherkin are treated by spraying the active ingredient prepared as described above. Control plants are treated only with an aqueous solution of acetone/Dimethyl sulfoxide/Tween®. After 24 hours, the plants are contaminated by spraying the leaves with an aqueous suspension of Sphaerotheca fuliginea spores.

The test system of another data set is Septoria tritici. The experiment in a line: Example D: in vivo preventive test on Septoria tritici (leaf spot on wheat). The following applies: wheat plants, preventive spray, evaluated 24 days after inoculation. On the procedure:
The young plants of wheat are treated by spraying the active ingredient prepared as described above. Control plants are treated only with an aqueous solution of acetone/Dimethyl sulfoxide/Tween®. After 24 hours, the plants are contaminated by spraying the leaves with an aqueous suspension of Septoria tritici spores.

The mark [1] stands for this setting: method [a]: LC-MS at pH 2.7, 0.1% formic acid in water / acetonitrile gradient.
Where [2] appears, read: method [b]: LC-MS at pH 7.8, 0.001 molar ammonium hydrogen carbonate in water / acetonitrile gradient.

Consider `Clc1cnc(Cl)c(CC2(C3(Cl)CC3)CO2)c1` (centres unmarked) [XII-41], for which the LogP under setting [1] was 3.87^[a].
Consider `Fc1cnccc1CC1(C2(F)CC2)CO1` (centres unmarked) [XII-7], for which, under setting [1], the LogP is 1.63^[a].
The same measure, in the same setting: then `CC(CF)(CF)C1(Cc2ccncc2Cl)CO1` (centres unmarked) [XII-18], with 2.16^[a].
In the data set on Sphaerotheca fuliginea (100 ppm of active ingredient), `OC(Cc1ccnc(Cl)c1)(Cn1cncn1)c1ccc(Cl)nc1` (centres unmarked) [Example I-38] showed an Eff. % of 100%. In addition, the LogP (pH 2.7) is 1.38^[a].
Regarding `O=C(Cc1cnc2ccccc2c1)C1(Cl)CC1` [Example V-13], under setting [1], the LogP is 1.60^[a].
Turning to `OC(Cc1ccccc1F)(Cc1ccncc1Cl)Cn1cncn1` (centres unmarked) [Example I-12], the Eff. % in the data set with Septoria tritici (100 ppm of active ingredient) came to 88%; in the data set with Sphaerotheca fuliginea (100 ppm of active ingredient) it was 100%. Moreover, the LogP (pH 2.7) was 1.96^[a].
With `OC(Cc1cccc(Cl)c1)(Cc1ccncc1F)Cn1cncn1` (centres unmarked) [Example I-22], the Eff. % with Septoria tritici (100 ppm of active ingredient) worked out at 88%. Further, for the setting “pH 2.7”, the LogP was 2.00^[a].
Turning to `CC(CF)(CF)C1(Cc2ccnc(Cl)c2F)CO1` (centres unmarked) [XII-27], the LogP under setting [1] is 2.65^[a].
Turning to `Fc1cc(CC2(C3(Cl)CC3)CO2)c(Cl)cn1` (centres unmarked) [XII-20], under setting [1], the LogP is 3.41^[a].
With `O=C(Cc1ccc2ccccc2n1)C1(Cl)CC1` [Example V-1], the LogP under setting [1] was 3.39^[a].
As for `CC1(C(O)(Cc2ccnnc2Cl)Cn2cncn2)CC1` (centres unmarked) [Example I-93], the LogP (pH 2.7) is 1.28^[a].
Take `O=C(Cc1c(Cl)ccnc1Cl)C1(Cl)CC1` [Example V-20]: the LogP under setting [1] was 2.96^[a].
On to `OC(Cc1c(Cl)cncc1Cl)(Cn1cncn1)c1ccc(Cl)nc1` (racemic) [Example I-63], for which, for the setting “pH 2.7”, the LogP is 1.89^[a].
On to `Clc1cccnc1CC1(C2(Cl)CC2)CO1` (centres unmarked) [XII-4], for which the LogP under setting [1] was 2.69^[a].
As to `OC(Cc1cccc(Cl)c1)(Cc1cc(Cl)ncc1F)Cn1cncn1` (racemic) [Example I-74], the Eff. % in the data set on Septoria tritici (500 ppm of active ingredient) and in the data set with Sphaerotheca fuliginea (500 ppm of active ingredient) was 100% each time. In addition, the LogP (pH 2.7) is 2.69^[a].
Consider `FC1(C2(Cc3cccnc3Cl)CO2)CC1` (centres unmarked) [XII-23], for which, under setting [1], the LogP was 2.18^[a].
On the same count and under the same terms, to `CC(C)(Cl)C1(Cc2ccncc2Cl)CO1` (centres unmarked) [XII-15] belongs 2.57^[a].
Still for that read-out and setting: then `Fc1c(CC2(C3(F)CC3)CO2)ccnc1Cl` (centres unmarked) [XII-28], with 2.53^[a].
`OC(Cc1nc(Cl)ccc1Cl)(Cn1cncn1)C1(Cl)CC1` (centres unmarked) [Example I-96]: the LogP (pH 2.7) was 2.73^[a].
As to `FC1(C2(Cc3ccnc(Cl)c3)CO2)CC1` (centres unmarked) [XII-9], under setting [1], the LogP is 2.27^[a].
In the case of `Fc1cc(CC2(C3(F)CC3)CO2)c(Cl)cn1` (centres unmarked) [XII-21], under setting [1], the LogP was 2.80^[a].
Consider `CC(C)(F)C(=O)Cc1ccncc1Cl` [Example V-8], for which, under setting [1], the log partition coefficient (LogP) is 1.97^[a].
On the same count and under the same terms, then `ClC1(C2(Cc3ccc4ccccc4n3)CO2)CC1` (centres unmarked) [XII-1], with 1.74^[a].
On to `OC(Cc1cc(Cl)ncc1F)(Cn1cncn1)c1cccnc1Cl` (centres unmarked) [Example I-43], for which the Eff. % in the data set with Sphaerotheca fuliginea (100 ppm of active ingredient) turned out to be 100%. For the same molecule, the LogP (pH 2.7) was 1.57^[a].
Take `Cc1cccc2cc(CC3(C4(Cl)CC4)CO3)c(Cl)nc12` (centres unmarked) [XII-39]: under setting [1], the log partition coefficient (LogP) is 4.90^[a].
Still for that read-out and setting: to `CC1(C(=O)Cc2ccncc2Cl)CC1` [Example V-11] belongs 1.85^[a].
With `OC(Cc1cc(Cl)nc2ccccc12)(Cn1cncn1)C1(Cl)CC1` (centres unmarked) [Example I-92], the LogP (pH 2.7) is 2.69^[a].
For `Clc1cnccc1CC1(C2(Cl)CCCCC2)CO1` (centres unmarked) [XII-17], under setting [1], the LogP was 3.80^[a].
With `OC(Cc1cncc(Cl)n1)(Cn1cncn1)C1(Cl)CC1` (centres unmarked) [Example I-9], the Eff. % in the data set with Sphaerotheca fuliginea (100 ppm of active ingredient) is reported as 94%. In addition, the LogP (pH 2.7) is 1.72^[a].
For the molecule `FC1(C2(Cc3c(Cl)cncc3Cl)CO2)CC1` (centres unmarked) [XII-34], the LogP under setting [1] is 2.93^[a].
`CC(CF)(CF)C1(Cc2cc(Cl)ncc2F)CO1` (centres unmarked) [XII-12]: the lipophilicity (LogP) under setting [1] is 2.69^[a].
Regarding `O=C(Cc1ccc(Cl)nc1)C1(Cl)CC1` [Example V-6], the LogP runs as follows: under setting [1], 2.34^[a]; under setting [2], 2.30^[b];.
Take `Cc1cnc(CC(O)(Cn2cncn2)C2(Cl)CC2)c(Cl)n1` (centres unmarked) [Example I-10]: the Eff. % in the data set with Sphaerotheca fuliginea (100 ppm of active ingredient) is on record as 75%. Also, where the note is “pH 2.7”, the LogP is 2.05^[a].
As for `Clc1ccc(CC2(C3(Cl)CC3)CO2)cn1` (centres unmarked) [XII-2], the LogP amounted to 2.84 under setting [1] and 2.83 under setting [2].
Take `O=C(Cc1cc(Cl)nc(Cl)c1)C1(Cl)CC1` [Example V-5]: under setting [1], the LogP was 3.25^[a].
Consider `OC(Cc1cc(Cl)ccn1)(Cn1cncn1)C1(Cl)CC1` (centres unmarked) [Example I-47], for which, under “pH 2.7”, the log partition coefficient (LogP) is 2.02^[a].
Turning to `Clc1cnccc1CC1(C2(Cl)CCCC2)CO1` (centres unmarked) [XII-16], the LogP under setting [1] is 3.42^[a].
Turning to `OC(Cc1cc(Cl)nc(Cl)c1)(Cn1cncn1)C1(Cl)CC1` (centres unmarked) [Example I-26], the Eff. % worked out at 97% in the data set with Septoria tritici (100 ppm of active ingredient) and 100% in the data set on Sphaerotheca fuliginea (100 ppm of active ingredient). In addition, the LogP (pH 2.7) was 2.54^[a].
As to `OC(Cc1ccnc(Cl)c1)(Cc1ccccc1F)Cn1cncn1` (centres unmarked) [Example I-35], the Eff. % in the data set with Sphaerotheca fuliginea (100 ppm of active ingredient) is 78%. Besides, under “pH 2.7”, the LogP was 2.06^[a].
For the molecule `OC(Cc1cccc(Cl)c1)(Cc1ccnc(Cl)c1)Cn1cncn1` (centres unmarked) [Example I-37], the LogP (pH 2.7) is 2.42^[a].
As for `O=C(Cc1cc(Cl)cnc1Cl)C1(Cl)CC1` [Example V-21], the LogP under setting [1] was 3.12^[a].
On the same count and under the same terms, to `O=C(Cc1cccnc1F)C1(Cl)CC1` [Example V-16] belongs 2.07^[a]; to `O=C(Cc1ccncc1Cl)C1(Cl)CC1` [Example V-4], 2.13^[a].
Turning to `ClC1(C2(Cc3ccncn3)CO2)CC1` (centres unmarked) [XII-25], the LogP under setting [1] is 1.44^[a].
On the same count and under the same terms, then `Clc1ccc(CC2(C3(Cl)CC3)CO2)c(Cl)n1` (centres unmarked) [XII-30], with 3.71^[a]; and `CC(CF)(CF)C1(Cc2ccnc(Cl)c2)CO1` (centres unmarked) [XII-10], with 2.38^[a].
Same read-out and setting: then `Clc1cc(CC2(C3(Cl)CC3)CO2)c(Cl)cn1` (centres unmarked) [XII-42], with 3.70^[a]; and `Fc1cnc(Cl)cc1CC1(C2(Cl)CC2)CO1` (centres unmarked) [XII-14], with 3.15^[a].
Still for that read-out and setting: to `CC(CF)(CF)C1(Cc2ccncc2F)CO1` (centres unmarked) [XII-8] belongs 1.79^[a].
Consider `Clc1ccnc(Cl)c1CC1(C2(Cl)CC2)CO1` (centres unmarked) [XII-40], for which the LogP under setting [1] was 3.53^[a].
In turn, `OC(Cc1ccnc(Cl)c1)(Cn1cncn1)c1cccnc1Cl` (centres unmarked) [Example I-34] yielded an Eff. % with Sphaerotheca fuliginea (100 ppm of active ingredient) of 100%. Further, the LogP (pH 2.7) is 1.35^[a].
For the molecule `OC(Cc1ncc(Cl)cc1Cl)(Cn1cncn1)C1(Cl)CC1` (centres unmarked) [Example I-97], the LogP (pH 2.7) was 2.88^[a].
For the molecule `CC(CF)(CF)C1(Cc2cc(F)ncc2Cl)CO1` (centres unmarked) [XII-22], the LogP under setting [1] was 2.84^[a].
`OC(Cc1cc(Cl)ncc1F)(Cn1cncn1)c1ccc(Cl)nc1` (centres unmarked) [Example I-42] registered an Eff. % with Sphaerotheca fuliginea (100 ppm of active ingredient) of 98%. The LogP (pH 2.7) was 1.60^[a].
Regarding `CC(CF)(CF)C1(Cc2c(Cl)cncc2Cl)CO1` (centres unmarked) [XII-33], under setting [1], the LogP was 2.89^[a].
On the same count and under the same terms, then `O=C(Cc1ncccc1Cl)C1(Cl)CC1` [Example V-2], with 2.40^[a].
`Clc1cc(CC2(C3(Cl)CC3)CO2)cc(Cl)n1` (centres unmarked) [XII-24]: the lipophilicity (LogP) under setting [1] was 3.80^[a].
Turning to `O=C(Cc1cccnc1)C1(Cl)CC1` [Example V-19], under setting [1], the LogP was 0.23^[a].
As for `Clc1cc(CC2(C3(Cl)CC3)CO2)ccn1` (centres unmarked) [XII-11], the LogP under setting [1] is 2.80^[a].
For `Cc1ccnc(CC(O)(Cn2cncn2)C2(Cl)CC2)c1` (centres unmarked) [Example I-52], the lipophilicity (LogP) (pH 2.7) was 0.52^[a].
With `O=C(Cc1ccc(Cl)nc1Cl)C1(Cl)CC1` [Example V-17], the LogP under setting [1] was 3.19^[a].
Regarding `OC(Cc1ccncc1Cl)(Cn1cncn1)C1(c2ccccc2)CC1` (racemic) [Example I-78], the LogP (pH 2.7) was 2.23^[a].
Same read-out and setting: to `C[Si](C)(C)OC(Cc1cnccn1)(Cn1cncn1)C1(Cl)CC1` (centres unmarked) [Example I-28] belongs 2.75^[a].
Take `CC1(C(=O)Cc2ccncc2Cl)CCCCC1` [Example V-12]: the LogP under setting [1] was 3.23^[a].
The same measure, in the same setting: then `Fc1cnccc1CC1(C2(Cl)CC2)CO1` (centres unmarked) [XII-6], with 2.13^[a]; and `Fc1cnc(Cl)cc1CC1(C2(F)CC2)CO1` (centres unmarked) [XII-13], with 2.57^[a].
`OC(Cc1ccnc(Cl)c1F)(Cn1cncn1)c1ccc(Cl)nc1` (racemic) [Example I-86] came in with an Eff. % in the data set with Septoria tritici (500 ppm of active ingredient) of 72%. In addition, the LogP (pH 2.7) is 1.23^[a].
Consider `OC(Cc1ccccc1F)(Cc1ccncc1F)Cn1cncn1` (centres unmarked) [Example I-20], for which, under “pH 2.7”, the LogP was 1.63^[a].
Regarding `FC1(C2(Cc3ccncc3Cl)CO2)CC1` (centres unmarked) [XII-19], under setting [1], the LogP is 2.06^[a].
Take `O=C(Cc1cccnc1Cl)C1(c2ccccc2)CC1` [Example V-10]: the LogP under setting [1] is 3.00^[a].
Regarding `Clc1cncc(Cl)c1CC1(C2(Cl)CC2)CO1` (centres unmarked) [XII-32], the LogP under setting [1] is 3.68^[a].
Still for that read-out and setting: to `Clc1ncccc1CC1(C2(Cl)CC2)CO1` (centres unmarked) [XII-5] belongs 2.69^[a]; to `FC(F)(F)c1cnccc1CC1(C2(Cl)CC2)CO1` (centres unmarked) [XII-38], 3.04^[a].
Same read-out and setting: then `Fc1c(CC2(C3(Cl)CC3)CO2)ccnc1Cl` (centres unmarked) [XII-26], with 3.11^[a].
The same measure, in the same setting: to `CC1(C(=O)Cc2cccnc2Cl)CC1` [Example V-9] belongs 1.96^[a]; to `Fc1ncccc1CC1(C2(Cl)CC2)CO1` (centres unmarked) [XII-31], 2.47^[a]; to `Cc1cccc2cc(CC(=O)C3(Cl)CC3)c(Cl)nc12` [Example V-18], 4.14^[a].
In the case of `O=C(Cc1ccncc1Cl)C1(F)CC1` [Example V-7], under setting [1], the lipophilicity (LogP) is 1.76^[a].
